Experimental data reported in patent US4414207A, “Rutin poly(H-)sulfate salts and related compounds” (American Cyanamid Company, priority 1982, dated 1983).

What was measured:
[1] = tested on: shunt pathway activated by cobra venom factor; assay: Test Code 036 (C-Shunt inhibitor); format: cell-based; conditions: fragile human erythrocytes in autologous serum
Text: (§1) An active inhibitor protects C2 from C1 and C4; (ii) Test Code 035 (C3-C9 inhibitor)--This test determines the ability of the late components of human complement (C3-C9) to lyse EAC 142 in the presence of appropriate dilutions of the test compound. An active inhibitor protects EAC 142 from lysis by human C3-C9; (iii) Test Code 036 (C-Shunt inhibitor)--In this test human erythrocytes rendered fragile are lysed in autologous serum via the shunt pathway activated by cobra venom factor in the presence of appropriate dilutions of the test compound. Inhibition of the shunt pathway results in failure of lysis; (iv) Forssman Vasculitis Test--Here, the well known complement dependent lesions, Forssman vasculitis, is produced in guinea pigs by intradermal injection of rabbit anti-Forssman antiserum. The lesion is measured in terms of diameter, edema and hemorrhage and the extent to which a combined index of these is inhibited by prior intraperitoneal injection of the test compound at 200 mg/kg is then reported, unless otherwise stated; (v) Forssman Shock Test--Lethal shock is produced in guinea pigs by an i.v. injection of anti-Forssman antiserum and the harmonic mean death time of treated guinea pigs is compared with that of simultaneous controls; (vi) Complement Level Reduction Test--In this test, the above dosed guinea pigs, or others, are bled for serum and the complement level is determined in undiluted serum by the capillary tube method of U.S. Pat. No. 3,876,376 and compared to undosed control guinea pigs; and (vii) Cap 50 Test--Here, appropriate amounts of the test compound are added to a pool of guinea pig serum in vitro, after which the undiluted serum capillary tube assay referred to above is run. The concentration of compound inhibiting 50% is reported, (viii) Guinea Pig Intraperitoneal Test (GPIP)--Guinea Pigs weighing about 300 g. are dosed intraperitoneally (i.p.) with 200 mg/kg of the test compound dissolved in saline and adjusted to pH 7-8. […] Percent inhibition are calculated by comparison with simultaneous controls. […]

[2] = tested on: late components of human complement (C3-C9); assay: Test Code 035 (C3-C9 inhibitor); format: biochemical; conditions: lysis of EAC 142 by human C3-C9
Text: as §1

activated human C1 = biological target: T1, activated human C1 (Homo sapiens, UniProt P09871); assay: Test Code 026 (C1 inhibitor); format: biochemical; conditions: serial dilution assay, twofold dilutions; higher well number indicates higher activity
T1 sequence (P09871 438-688 limits assumed): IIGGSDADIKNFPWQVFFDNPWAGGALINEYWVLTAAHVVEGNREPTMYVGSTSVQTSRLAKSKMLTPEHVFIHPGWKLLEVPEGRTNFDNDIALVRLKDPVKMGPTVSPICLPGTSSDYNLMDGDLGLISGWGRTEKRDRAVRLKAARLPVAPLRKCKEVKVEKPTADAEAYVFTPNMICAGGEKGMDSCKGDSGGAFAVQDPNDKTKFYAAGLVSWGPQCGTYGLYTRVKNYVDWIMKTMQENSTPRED
T1 sequence (P09871 16-437 limits assumed): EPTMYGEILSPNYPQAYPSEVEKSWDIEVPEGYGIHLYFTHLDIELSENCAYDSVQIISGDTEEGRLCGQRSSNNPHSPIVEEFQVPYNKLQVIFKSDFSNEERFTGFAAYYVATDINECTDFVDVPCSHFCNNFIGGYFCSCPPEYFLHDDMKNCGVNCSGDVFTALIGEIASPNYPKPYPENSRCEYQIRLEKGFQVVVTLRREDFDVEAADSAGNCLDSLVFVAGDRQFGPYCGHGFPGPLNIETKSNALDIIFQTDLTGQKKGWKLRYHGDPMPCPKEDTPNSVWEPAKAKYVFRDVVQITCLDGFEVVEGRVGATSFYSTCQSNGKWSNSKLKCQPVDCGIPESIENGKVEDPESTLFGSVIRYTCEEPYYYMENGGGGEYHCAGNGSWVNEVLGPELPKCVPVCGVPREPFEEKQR
Text: as §1

guinea pigs = assay: Forssman Shock Test; format: in vivo, guinea pig; conditions: i.v. anti-Forssman antiserum, Control 3.3
Text: (§2) An active inhibitor protects C2 from C1 and C4; (ii) Test Code 035 (C3-C9 inhibitor)--This test determines the ability of the late components of human complement (C3-C9) to lyse EAC 142 in the presence of appropriate dilutions of the test compound. An active inhibitor protects EAC 142 from lysis by human C3-C9; (iii) Test Code 036 (C-Shunt inhibitor)--In this test human erythrocytes rendered fragile are lysed in autologous serum via the shunt pathway activated by cobra venom factor in the presence of appropriate dilutions of the test compound. Inhibition of the shunt pathway results in failure of lysis; (iv) Forssman Vasculitis Test--Here, the well known complement dependent lesions, Forssman vasculitis, is produced in guinea pigs by intradermal injection of rabbit anti-Forssman antiserum. […] Percent inhibition are calculated by comparison with simultaneous controls. […]

[3] = tested on: complement activity of sera; assay: Guinea Pig Intraperitoneal Test (GPIP); format: in vivo; conditions: 200 mg/kg i.p.
Text: as §1

complement = complement inhibiting activity using the tests disclosed herein; conditions: stated in words
Text: as §2

| Compound | 036 (C-Shunt inhibitor) [1] | 035 (C3-C9 inhibitor) [2] | 026 (C1 inhibitor), activity in wells (activated human C1) | Forssman Shock (harmonic mean death time) (guinea pigs) [min] | In vivo activity (Guinea Pig) Intraperitoneal % Inhibition, 30 minutes ([3]; serum complement 30 minutes after injection) [%] | In vivo activity (Guinea Pig) Intraperitoneal % Inhibition, 60 minutes ([3]; serum complement 60 minutes after injection) [%] | In vivo activity (Guinea Pig) Intraperitoneal % Inhibition, 120 minutes ([3]; serum complement 120 minutes after injection) [%] | complement inhibiting activity (complement) |
| --- | --- | --- | --- | --- | --- | --- | --- | --- |
| C[C@@H]1O[C@@H](OC[C@H]2O[C@@H](Oc3c(-c4ccc(O)c(O)c4)oc4cc(O)cc(O)c4c3=O)[C@H](O)[C@@H](O)[C@@H]2O)[C@H](O)[C@H](O)[C@H]1O [Rutin] | N | N | N |  |  |  |  |  |
| Rutin poly(H-)sulfate, sodium salt | N | N | +7 wells | 17.2 | -79 | -89 | -89 |  |
| Rutin poly(H-)sulfate, sodium salt (original source commercial `Rutin water soluble`) |  |  |  |  |  |  |  | highly active |
| Rutin poly(H-)sulfate, trimethylamine salt | N | N | +2 wells |  |  |  |  |  |
